Measurements published in PubChem BioAssay AID977621 (Broad Institute, 2014).
Inconclusive results are not listed. Active and inactive are the calls of the source.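 The calls were made as follows: active = Wild-type ribosome reporter drop at least double the humanized mutant ribosome reporter drop, growth loss under a set limit; inconclusive = no clear call, values can overlap the other calls; inactive = the rest.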

Key:
[1] = test system: E. coli H69 humanized mutant ribosome RFP strain growth, fluorescence, 24 h; assay: wild-type E. coli growth inhibition versus H69 humanized strain – H69 mutant RFP, wild-type GFP, cherry-pick, dose response (AID 977621); conditions: test 2;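 also: wild-type GFP and H69 mutant RFP strains grown together 50/50 in each well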
[2] = test system: E. coli wild-type GFP strain growth, fluorescence, 24 h; assay: as above
[3] = E. coli mixed culture, 24 h, measured here: total growth OD600, test 2

Row | Structure (SMILES) | AC50 [1] | AC50 [2] | AC50 [2, 3]
1 | O=C(Cc1c(Cl)cccc1Cl)Nc1cccc(S(=O)(=O)N2CCOCC2)c1 | > 100 µM | > 100 µM (inactive) | 47.3 µM
2 | O=C(COC(=O)C1CC2C=CC1C2)Nc1ccc([N+](=O)[O-])cc1 (stereo unspecified) | > 100 µM | – | –
3 | CC1Sc2ccc(S(=O)(=O)NCc3ccccc3)cc2NC1=O (stereo unspecified) | > 100 µM | – | –
4 | O=C(COC(=O)CCC(=O)c1ccc(F)cc1)NCCc1ccccc1 | > 100 µM | – | –
5 | Cc1ccccc1Nc1c(-c2cccnc2)nc2ccc(Br)cn12 | > 100 µM | – | –
6 | CSc1c(-c2ccccn2)c(N)nn1C(=O)C1CC1 | > 100 µM | > 100 µM (inactive) | –
7 | O=C(NCc1ccccc1)c1ccc(-c2ccccc2F)o1 | > 100 µM | – | 36.1 µM
8 | CCCCn1c(=O)[nH]c(=O)c2c1nc(-c1ccccc1F)n2Cc1ccccc1 | > 100 µM | – | –
9 | CSc1cccc(NC(=O)CCc2ccccc2)c1 | 20 µM | – | –
10 | Cc1noc(C)c1COc1cccc(C(=O)N2CCc3ccccc32)c1 | > 100 µM | – | > 100 µM
11 | O=C(Nc1ccc(Br)cc1)c1cccnc1N1CCCCC1 | > 100 µM | – | 45.7 µM
12 | CCn1cc(Br)c(C(=O)Nc2ccc(C(=O)OC(C)C)cc2)n1 | 24.1 µM | > 100 µM (inactive) | –
13 | CCc1cc2c(=O)n(Cc3ccccc3)c(SC3CCOC3=O)nc2s1 (stereo unspecified) | 52.3 µM | – | –
14 | Cn1c(=O)c2nc(-c3ccccc3)c(-c3ccccc3)nc2n(C)c1=O | 35.6 µM | > 100 µM (inactive) | 47.9 µM
15 | O=C(NCc1ccccc1Cl)[C@H]1CCCN1C(=O)[C@H]1CCCN1C(=O)c1cccc2ccccc12 | > 100 µM | > 100 µM (inactive) | 48 µM
16 | O=C(Nc1cccc(Oc2ccc3c(c2)C(=O)NC3=O)c1)c1cccs1 | 13 µM | – | –
17 | O=c1c2cc(Br)ccc2[nH]c(=S)n1Cc1ccccc1 | > 100 µM | – | 43.2 µM
18 | CSc1nc2nc3c(cc2c(=O)n1-c1ccccc1C)CCCC3 | > 100 µM | – | > 100 µM
19 | CCOC(=O)C1CCCN(Cc2c(Cl)cccc2Cl)C1 (stereo unspecified) | 6.66 µM | – | –
20 | Cc1sc(NC(=O)CN2CCOCC2)nc1-c1ccc2c(c1)CCN2S(=O)(=O)c1ccccc1 | 2.87 µM | – | > 100 µM
21 | Cc1ccc(N(CC(O)Cn2nc(C)cc2C)S(=O)(=O)c2ccc3ccccc3c2)cc1 (stereo unspecified) | > 100 µM | > 100 µM (inactive) | 31.5 µM
22 | CCOC(=O)c1ccoc1CN1CCN(S(=O)(=O)c2ccc(C)c(C)c2)CC1 | > 100 µM | > 100 µM (inactive) | –
23 | CCOC(=O)CN1C(=O)C(CC)Oc2ccc(Cl)cc21 (stereo unspecified) | 5.94 µM | – | > 100 µM
24 | O=C(O)CCSc1nc2ccccc2n1-c1ccccc1 | 7.77 µM | > 100 µM (inactive) | 26.9 µM
25 | CC1CCCN(c2nc(N(C)c3ccccc3)nc(N)c2[N+](=O)[O-])C1 (stereo unspecified) | 50.7 µM | > 100 µM (inactive) | –
26 | CCSc1nc2ccccc2c(=O)n1CCc1ccc(OC)c(OC)c1 | 47.2 µM | > 100 µM (inactive) | 44.4 µM

Row | Structure (SMILES) | AC50 [1] | AC50 [2] | AC50 [2, 3]
27 | O=C(CSCc1cnn(-c2ccccc2)c1-n1cccc1)NCc1cccnc1 | 2.13 µM | – | –
28 | C=C(C)Cn1c(=O)c2c(nc3n2CCCN3Cc2ccccc2)n(C)c1=O | > 100 µM | > 100 µM (inactive) | –
29 | CCOc1ccc(CCNC(=O)CN2C(=O)CCSc3ccccc32)cc1 | > 100 µM | > 100 µM (inactive) | –
30 | CN1c2ccccc2-c2nc3ccccc3n2C1c1ccncc1 (stereo unspecified) | > 100 µM | > 100 µM (inactive) | > 100 µM
31 | CCN(CC)CC(=O)Nc1sc2c(c1C(=O)c1ccccc1OC)CCC2 | 48.3 µM | – | –
32 | FC(F)(F)c1ccc(Cl)c(-n2c(Cc3cccs3)n[nH]c2=S)c1 | > 100 µM | – | –
33 | Cc1cc(NC(=O)CS(=O)(=O)c2cn(Cc3cccc(Br)c3)c3ccccc23)no1 | > 100 µM | – | 46 µM
34 | CN(c1ccccc1)c1ccc([N+](=O)[O-])c2nonc12 | 49.4 µM | > 100 µM (inactive) | –
35 | Oc1ccc(-c2csc(Nc3ncccn3)n2)cc1 | > 100 µM | – | –
36 | COC(=O)c1ccsc1NC(=O)c1cccc(OC)c1 | > 100 µM | – | > 100 µM
37 | Cc1ccc(Cl)cc1N1CCN(C(=O)c2ccc3nc[nH]c3c2)CC1 | 51.4 µM | – | –
38 | COc1ccc(C2CC(c3cccs3)=Nc3ccccc3S2)cc1 (stereo unspecified) | 1.44 µM | – | –
39 | CCCc1nc2oc3c(NCCCN(C)C)ncnc3c2c2c1CCCC2 | 6.74 µM | – | –
40 | Cn1c(CC2C(=O)Nc3ccc(Br)cc32)nc2ccccc2c1=O (stereo unspecified) | > 100 µM | – | –
41 | O=C(CCNC(=O)c1ccccc1)Nc1ccc(Cl)c(S(=O)(=O)N2CCCCC2)c1 | 42.6 µM | – | –
42 | O=C(O)c1cc(-c2ccc(-c3ccc(F)cc3)o2)nc2ccccc12 | 39.6 µM | – | –
43 | COc1ccccc1NC(=O)CSc1ncc(CO)n1Cc1ccc(F)cc1 | > 100 µM | – | –
44 | CC(C)(C)N(Cc1ccccc1)C(=O)COC(=O)Cn1cnc2ccccc2c1=O | > 100 µM | – | –
45 | COc1ccc(-c2ccccc2)cc1NC(=O)c1ccncc1 | 4.41 µM | – | > 100 µM
46 | O=C(O)c1cccnc1SCc1ccccc1Cl | 35.9 µM | – | –
47 | CCOc1cc(/C=C(\CC(=O)O)c2nc3ccccc3s2)ccc1OC | > 100 µM | – | –
48 | COc1ccc(OC2C(=O)N(Cc3ccc4c(c3)OCO4)C2c2cccs2)cc1 (stereo unspecified) | 47.4 µM | – | –
49 | COc1ccc(-c2csc3ncn(-c4ccccc4OC)c(=O)c23)cc1OC | > 100 µM | > 100 µM (inactive) | –
50 | Cc1cccc(C)c1NC(=O)C1(C)CSCC(=O)N1CCOc1ccccc1 (stereo unspecified) | > 100 µM | – | > 100 µM
51 | Cc1onc(-c2ccccc2Cl)c1C(=O)OCC(=O)c1ccccc1 | 45.6 µM | – | –
52 | Cc1cc(-c2ccc(C)c(S(=O)(=O)NCC3CCN(Cc4ccccc4F)CC3)c2)on1 | > 100 µM | – | –

Row | Structure (SMILES) | AC50 [1] | AC50 [2] | AC50 [2, 3]
53 | COc1ccc(OC)c(N(CC(=O)Nc2ccccc2F)S(=O)(=O)c2ccccc2)c1 | 4.66 µM | – | –
54 | CN1CCN(CC(=O)c2cc(C(C)(C)C)c(O)c(C(C)(C)C)c2)CC1 | > 100 µM | – | –
55 | NC(=O)c1ccccc1OCCOc1ccc(Br)cc1 | > 100 µM | – | –
56 | Cc1noc2ncnc(SCc3ccc(C(F)(F)F)cc3)c12 | > 100 µM | – | –
57 | Cc1c(CCOC(=O)C23CC4CC(CC(C4)C2)C3)sc[n+]1Cc1ccccc1 | 4.41 µM | – | –
58 | CCc1c(N=O)c(-c2ccccc2)n(O)[n+]1[O-] | 6.29 µM | – | –
59 | COC(=O)c1ccc(CSc2nc3ccccc3s2)o1 | 39 µM | – | –
60 | O=C(OCC1COc2ccccc2O1)c1ccccc1F (stereo unspecified) | > 100 µM | – | –
61 | Cc1ccc(S(=O)(=O)N(C(=O)c2ccncc2)c2ccc(OC(=O)c3ccncc3)cc2)c(C)c1 | > 100 µM | – | –
62 | Cc1ccc2c(N)c(C(=O)c3ccccc3)sc2n1 | 50.8 µM | – | –
63 | CCOc1ccc(NC(=O)CCc2nnc3ccc(N4CCC(C)CC4)nn23)cc1 | 51.2 µM | – | –
64 | Cc1nn(C(C)(C)C)c(OC(=O)CC(C)C)c1S(=O)(=O)c1ccccc1 | 30.7 µM | – | –
65 | [O-][n+]1ccccc1/C=C/c1ccccc1 | > 100 µM | – | –
66 | CSc1nnnn1-c1ccc(Cl)cc1 | > 100 µM | – | –
67 | COc1ccc(C2CC(=O)CCN2S(=O)(=O)c2ccc(C)cc2)cc1 (stereo unspecified) | 3.86 µM | – | –
68 | O=C(Nc1nnc(Cc2ccc(Cl)cc2)s1)c1ccncc1 | > 100 µM | – | –
69 | COc1ccc(CNC(=O)c2sc3nc4c(c(C(F)(F)F)c3c2N)CCC4)cc1OC | 13.9 µM | – | –
70 | Brc1ccccc1Cn1c(-c2cncs2)nc2ccccc21 | > 100 µM | – | –
71 | CSc1ccc(CN(C)C(=O)C(c2ccccc2)c2ccccc2)cc1 | 50.1 µM | – | –
72 | Cc1ccc(NC(=O)CN(C)S(=O)(=O)c2cccc3cccnc23)cc1F | > 100 µM | – | –
73 | C[C@H]1CN([C@@H](C)CO)C(=O)CCCn2nncc2CO[C@@H]1CN(C)Cc1ccccc1C(F)(F)F | > 100 µM | – | –
74 | O=C1c2ccccc2CSc2c(O)cccc21 | 45.9 µM | – | –
75 | CCCCNC(=O)C[C@@H]1C[C@@]2(C(=O)OC)CCCCC=C2N(Cc2ccccc2)C1=O | > 100 µM | – | –
76 | O=C(NCCc1csc(-c2ccccc2)n1)c1ccccc1F | 49 µM | – | –
77 | CC(C)n1nnnc1C1c2ccccc2C(=O)N1CCOc1ccccc1 (stereo unspecified) | 0.989 µM | – | –
78 | CN1CCSc2ccc(C(=O)Nc3cccc(F)c3)cc21 | 0.837 µM | – | –

Row | Structure (SMILES) | AC50 [1] | AC50 [2] | AC50 [2, 3]
79 | O=S(=O)(c1cccc(-c2nc3ccccc3s2)c1)N1CCCC1 | > 100 µM | – | –
80 | Fc1ccc(-c2nc3ccc(Cl)cn3c2Cc2cccc(Cl)c2)cc1 | > 100 µM | – | –
81 | O=C1CCCCC1Nc1ccc(Br)cc1 (stereo unspecified) | > 100 µM | – | –
82 | COc1ccc2c(c1)c(C(C)=O)c(C)n2CCc1ccc(OC)c(OC)c1 | 51 µM | – | –
83 | COc1ccc(-c2csc(NC(=O)c3ccccc3S(C)(=O)=O)n2)cc1 | > 100 µM | – | –
84 | COC(C(=O)Nc1ccnn1C1CCN(Cc2ccc(Cl)s2)CC1)c1ccccc1 (stereo unspecified) | > 100 µM | – | –
85 | O=S(=O)(NCc1ccc2c(c1)OCO2)c1ccc2c(c1)oc1ccccc12 | 52.3 µM | – | –
86 | Cc1ccccc1-n1nnnc1SCCCC(=O)c1ccc(F)cc1 | 6.72 µM | – | –
87 | O=C1N2c3ccccc3CCc3cccc(c32)C1(O)C(F)(F)F (stereo unspecified) | 43.6 µM | – | –
88 | O=C1c2ccccc2C(c2nnnn2C2CCCCC2)N1CCc1ccc(O)cc1 (stereo unspecified) | > 100 µM | – | –
89 | O=C(c1ccc(-n2cccn2)cc1)N1CCc2ccccc2C1 | 52.2 µM | – | –
90 | COC(=O)c1sccc1NC(=O)Cn1nnc(-c2ccccc2C)n1 | 45.1 µM | – | –
91 | O=C(Nc1nc(-c2ccc3ccccc3c2)cs1)C1CCN(S(=O)(=O)c2cccs2)CC1 | > 100 µM | – | –
92 | CNC(=O)c1ccsc1NC(=O)c1ccc(S(=O)(=O)N2CCc3ccccc32)cc1 | 2.19 µM | – | –
93 | Cc1noc(NS(=O)(=O)c2ccc(NC(=O)c3cc(-c4ccccc4Cl)nc4ccccc34)cc2)c1C | 45.6 µM | – | –
94 | COc1cccc(CNC(=O)CCSCc2ccccc2F)c1 | > 100 µM | – | –
95 | Cc1ccccc1-c1nc(CS(=O)(=O)CC(=O)N2CCCCC2)c(C)o1 | > 100 µM | – | –
96 | Cc1ccccc1S(=O)(=O)c1cc2ccccc2nc1N | > 100 µM | – | –
97 | Cc1noc(C)c1NC(=O)Nc1ccc2c(c1)C(=O)N([C@@H](C)CO)C[C@@H](C)[C@H](CN(C)C(=O)Nc1ccc3c(c1)OCO3)OCCCC[C@H](C)O2 | > 100 µM | – | –
98 | O=C(O)c1cc2ccc3ccccc3c2[nH]1 | 7.13 µM | – | –
99 | O=C(CSc1nc2ccccc2n1S(=O)(=O)c1cccc([N+](=O)[O-])c1)NCCc1ccccc1 | > 100 µM | – | –
100 | COC(=O)c1cc(C(=O)Cc2ccccc2)c[nH]1 | > 100 µM | – | –
101 | O=C(O)c1cc(-c2cccs2)nn1-c1cccc(Cl)c1 | 46.1 µM | – | –
102 | Cc1ccccc1CSc1nnc(-c2ccccn2)n1C | 28.3 µM | – | –
103 | COc1ccccc1-c1noc2ncnc(Nc3cccc(C)c3C)c12 | > 100 µM | – | –
